Values after ≈ are worked out from the molar mass of the structure shown.

Data set [1] relates to Mycobacterium tuberculosis. Put plainly: Antimycobacterial activity against Mycobacterium tuberculosis H37Rv by microplate alamar blue assay. Type of data set: functional.
Data set [2] can be described thus: Cytotoxicity against human THP1 cells at 50 ug/ml by MTT assay. Type of data set: cell-based. The conditions noted are these: THP-1 cells, read-out: INH.

As to `C(=N\Nc1nc(-c2ccccc2)cs1)/c1ccc(-n2ccnc2)cc1`, the MIC in data set [1] was found to be 72.5 µM (≈ 25 µg/mL). In addition, the cytotoxicity at 50 ug/ml in data set [2] worked out at 21.8%.

Take `Fc1ccc(-c2csc(N/N=C/c3ccc(-n4ccnc4)cc3)n2)cc1`: the MIC in data set [1] turned out to be 4.3 µM (≈ 1.56 µg/mL). Also, the cytotoxicity at 50 ug/ml in data set [2] worked out at 18.7%.

`Clc1ccc(-c2csc(N/N=C/c3ccc(-n4ccnc4)cc3)n2)cc1` yielded an MIC in data set [1] of 8.22 µM (≈ 3.12 µg/mL). Besides, in data set [2], the cytotoxicity at 50 ug/ml was 32.1%.

The molecule `Brc1ccc(-c2csc(N/N=C/c3ccc(-n4ccnc4)cc3)n2)cc1` came in with an MIC in data set [1] of 59.1 µM (≈ 25.1 µg/mL). The cytotoxicity at 50 ug/ml in data set [2] is 36.8%.

In data set [1], `Clc1ccc(-c2csc(N/N=C/c3ccc(-n4ccnc4)cc3)n2)c(Cl)c1` yielded an MIC of 15.1 µM (≈ 6.26 µg/mL). Further, in data set [2], the cytotoxicity at 50 ug/ml was 28.8%.

The molecule `Cc1ccc(-c2csc(N/N=C/c3ccc(-n4ccnc4)cc3)n2)cc1` yielded an MIC in data set [1] of 33 µM (≈ 11.9 µg/mL). In addition, the cytotoxicity at 50 ug/ml in data set [2] turned out to be 36%.

For the molecule `COc1ccc(-c2csc(N/N=C/c3ccc(-n4ccnc4)cc3)n2)cc1`, in data set [1], the MIC worked out at 4.16 µM (≈ 1.56 µg/mL). For the same molecule, in data set [2], the cytotoxicity at 50 ug/ml was 26.8%.

`O=[N+]([O-])c1ccc(-c2csc(N/N=C/c3ccc(-n4ccnc4)cc3)n2)cc1` returned a minimal inhibitory concentration (MIC) in data set [1] of 1.03 µM (≈ 0.402 µg/mL). Moreover, in data set [2], the cytotoxicity at 50 ug/ml turned out to be 16.4%.

As to `C(=N\Nc1nc(-c2ccccc2)cs1)/c1ccc(-n2cncn2)cc1`, in data set [1], 72.2 µM (≈ 25 µg/mL) was the least that counted as inhibitory (MIC). Besides, the cytotoxicity at 50 ug/ml in data set [2] was found to be 28.4%.

For `Fc1ccc(-c2csc(N/N=C/c3ccc(-n4cncn4)cc3)n2)cc1`, in data set [1], the MIC was 4.29 µM (≈ 1.56 µg/mL). In addition, the cytotoxicity at 50 ug/ml in data set [2] turned out to be 35.9%.

For `Clc1ccc(-c2csc(N/N=C/c3ccc(-n4cncn4)cc3)n2)cc1`, the MIC in data set [1] amounted to 8.2 µM (≈ 3.12 µg/mL). Further, in data set [2], the cytotoxicity at 50 ug/ml is 28.4%.

`Brc1ccc(-c2csc(N/N=C/c3ccc(-n4cncn4)cc3)n2)cc1` registered an MIC in data set [1] of 29.5 µM (≈ 12.5 µg/mL). In addition, the cytotoxicity at 50 ug/ml in data set [2] amounted to 32.6%.

Consider `Clc1ccc(-c2csc(N/N=C/c3ccc(-n4cncn4)cc3)n2)c(Cl)c1`, for which the MIC in data set [1] is 3.76 µM (≈ 1.56 µg/mL). Also, the cytotoxicity at 50 ug/ml in data set [2] is 8.9%.

`Cc1ccc(-c2csc(N/N=C/c3ccc(-n4cncn4)cc3)n2)cc1` yielded an MIC in data set [1] of 4.33 µM (≈ 1.56 µg/mL). Moreover, the cytotoxicity at 50 ug/ml in data set [2] is 13.6%.

In data set [1], `COc1ccc(-c2csc(N/N=C/c3ccc(-n4cncn4)cc3)n2)cc1` gave an MIC of 16.6 µM (≈ 6.26 µg/mL). The cytotoxicity at 50 ug/ml in data set [2] is 23%.

`O=[N+]([O-])c1ccc(-c2csc(N/N=C/c3ccc(-n4cncn4)cc3)n2)cc1`: the lowest concentration to inhibit growth in data set [1] (MIC) was 3.99 µM (≈ 1.56 µg/mL). The cytotoxicity at 50 ug/ml in data set [2] is 12.9%.

As to `CC[C@@H](CO)NCCN[C@@H](CC)CO` [ETHAMBUTOL], the MIC in data set [1] amounted to 7.65 µM (≈ 1.56 µg/mL).

In the case of `NNC(=O)c1ccncc1` [ISONIAZID], in data set [1], the MIC turned out to be 0.36 µM (≈ 0.0494 µg/mL).

As for `CO[C@H]1/C=C/O[C@@]2(C)Oc3c(C)c(O)c4c(O)c(c(/C=N/N5CCN(C)CC5)c(O)c4c3C2=O)NC(=O)/C(C)=C\C=C\[C@H](C)[C@H](O)[C@@H](C)[C@@H](O)[C@@H](C)[C@H](OC(C)=O)[C@@H]1C` [RIFAMPIN], it took 0.12 µM (≈ 0.0988 µg/mL) to inhibit growth in data set [1] (MIC).
